Experimental data as given in ChEMBL document CHEMBL1921755, “The synthesis of xanthones, xanthenediones, and spirobenzofurans: their antibacterial and antifungal activity” (2011).
In brackets after ≈: the same amount, converted by molar mass.

How the values were obtained:
Type in all cases: functional
Bacillus cereus = assay: Antibacterial activity against Bacillus cereus ATCC 11778
Staphylococcus aureus = assay: Antibacterial activity against Staphylococcus aureus ATCC 2587
Escherichia coli = assay: Antibacterial activity against Escherichia coli ATCC 8739
Moraxella catarrhalis = assay: Antibacterial activity against Moraxella catarrhalis […]
Cryptococcus neoformans = assay: Antifungal activity against Cryptococcus neoformans ATCC 90112
Candida albicans [1] = assay: Antifungal activity against Candida albicans ATCC 10231
Bacillus subtilis = assay: Antibacterial activity against Bacillus subtilis
Candida albicans [2] = assay: Antifungal activity against Candida albicans
Nakaseomyces glabratus = assay: Antifungal activity against Candida glabrata

Row | Structure (SMILES) | MIC (Bacillus cereus) | MIC (Staphylococcus aureus) | MIC (Escherichia coli) | MIC (Moraxella catarrhalis) | MIC (Cryptococcus neoformans) | MIC (Candida albicans [1]) | MIC (Bacillus subtilis) | MIC (Candida albicans [2]) | MIC (Nakaseomyces glabratus)
1 | COc1cc2oc3ccccc3c(=O)c2cc1OC | 46.9 µg/mL (≈ 183 µM) | 62.5 µg/mL (≈ 244 µM) | 125 µg/mL (≈ 488 µM) | 125 µg/mL (≈ 488 µM) | 31.3 µg/mL (≈ 122 µM) | 31.3 µg/mL (≈ 122 µM) | – | – | –
2 | COc1ccc2oc3ccccc3c(=O)c2c1 | 312 µg/mL (≈ 1380 µM) | 156 µg/mL (≈ 690 µM) | 312 µg/mL (≈ 1380 µM) | 625 µg/mL (≈ 2760 µM) | 78.1 µg/mL (≈ 345 µM) | 156 µg/mL (≈ 690 µM) | – | – | –
3 | COC12C=CC(=O)C=C1C(=O)c1ccccc1O2 (centres undefined) | 31.3 µg/mL (≈ 129 µM) | 93.7 µg/mL (≈ 387 µM) | 125 µg/mL (≈ 516 µM) | 125 µg/mL (≈ 516 µM) | 3.6 µg/mL (≈ 14.9 µM) | 3.6 µg/mL (≈ 14.9 µM) | – | – | –
4 | COc1c(O)ccc2oc3ccccc3c(=O)c12 | 31.3 µg/mL (≈ 129 µM) | 125 µg/mL (≈ 516 µM) | 125 µg/mL (≈ 516 µM) | 125 µg/mL (≈ 516 µM) | 15.6 µg/mL (≈ 64.4 µM) | 31.3 µg/mL (≈ 129 µM) | – | – | –
5 | COC12C=CC(=O)C=C1C(=O)c1cc(Br)ccc1O2 (centres undefined) | 31.3 µg/mL (≈ 97.5 µM) | 62.5 µg/mL (≈ 195 µM) | 62.5 µg/mL (≈ 195 µM) | 125 µg/mL (≈ 389 µM) | 15.6 µg/mL (≈ 48.6 µM) | 7.8 µg/mL (≈ 24.3 µM) | – | – | –
6 | O=c1c2cc(O)ccc2oc2ccc(Br)cc12 | 31.3 µg/mL (≈ 108 µM) | 250 µg/mL (≈ 859 µM) | 125 µg/mL (≈ 429 µM) | > 250 µg/mL | 11.7 µg/mL (≈ 40.2 µM) | 31.3 µg/mL (≈ 108 µM) | – | – | –
7 | COC1=CC2(OC)Oc3ccc(Br)cc3C(=O)C2=CC1=O (centres undefined) | 31.3 µg/mL (≈ 89.1 µM) | 62.5 µg/mL (≈ 178 µM) | 188 µg/mL (≈ 534 µM) | 125 µg/mL (≈ 356 µM) | 15.6 µg/mL (≈ 44.4 µM) | 31.3 µg/mL (≈ 89.1 µM) | – | – | –
8 | COC1=CC2(Oc3ccc(Br)cc3C2=O)C(OC)=CC1=O (centres undefined) | 31.3 µg/mL (≈ 89.1 µM) | 62.5 µg/mL (≈ 178 µM) | 62.5 µg/mL (≈ 178 µM) | 125 µg/mL (≈ 356 µM) | 15.6 µg/mL (≈ 44.4 µM) | 31.3 µg/mL (≈ 89.1 µM) | – | – | –
9 | COc1cc2oc3ccc(Br)cc3c(=O)c2cc1O | 31.3 µg/mL (≈ 97.5 µM) | 62.5 µg/mL (≈ 195 µM) | 125 µg/mL (≈ 389 µM) | 125 µg/mL (≈ 389 µM) | 15.6 µg/mL (≈ 48.6 µM) | 31.3 µg/mL (≈ 97.5 µM) | – | – | –
10 | COC1=CC2(Oc3ccc(-c4ccccc4)cc3C2=O)C(OC)=CC1=O (centres undefined) | 46.9 µg/mL (≈ 135 µM) | 62.5 µg/mL (≈ 179 µM) | 125 µg/mL (≈ 359 µM) | > 250 µg/mL | 23.4 µg/mL (≈ 67.2 µM) | 31.3 µg/mL (≈ 89.9 µM) | – | – | –
11 | COC1=CC2(Oc3ccc(-c4ccccc4C=O)cc3C2=O)C(OC)=CC1=O (centres undefined) | 15.6 µg/mL (≈ 41.4 µM) | 15.6 µg/mL (≈ 41.4 µM) | 62.5 µg/mL (≈ 166 µM) | 125 µg/mL (≈ 332 µM) | 15.6 µg/mL (≈ 41.4 µM) | 31.3 µg/mL (≈ 83.2 µM) | – | – | –
12 | COC12Oc3ccccc3C(=O)C1=CC(=O)c1ccccc12 (centres undefined) | 19.5 µg/mL (≈ 66.7 µM) | 78.1 µg/mL (≈ 267 µM) | 156 µg/mL (≈ 534 µM) | 78.1 µg/mL (≈ 267 µM) | 19.5 µg/mL (≈ 66.7 µM) | 78.1 µg/mL (≈ 267 µM) | – | – | –
13 | COC12Oc3ccc(Cl)cc3C(=O)C1=CC(=O)c1ccccc12 (centres undefined) | 78.1 µg/mL (≈ 239 µM) | 19.5 µg/mL (≈ 59.7 µM) | 469 µg/mL (≈ 1430 µM) | 312 µg/mL (≈ 956 µM) | 29.2 µg/mL (≈ 89.4 µM) | 469 µg/mL (≈ 1430 µM) | – | – | –
14 | COC1=CC2(Oc3ccc(Cl)cc3C2=O)C(OC)=CC1=O (centres undefined) | 156 µg/mL (≈ 509 µM) | 156 µg/mL (≈ 509 µM) | 312 µg/mL (≈ 1020 µM) | 312 µg/mL (≈ 1020 µM) | 39 µg/mL (≈ 127 µM) | 156 µg/mL (≈ 509 µM) | – | – | –
15 | COc1cc2oc3ccc(Cl)cc3c(=O)c2cc1OC | 312 µg/mL (≈ 1070 µM) | 117 µg/mL (≈ 403 µM) | 312 µg/mL (≈ 1070 µM) | 625 µg/mL (≈ 2150 µM) | 78.1 µg/mL (≈ 269 µM) | 156 µg/mL (≈ 537 µM) | – | – | –
16 | COC1=CC2(OC)Oc3ccc(Cl)cc3C(=O)C2=CC1=O (centres undefined) | 39 µg/mL (≈ 127 µM) | 39 µg/mL (≈ 127 µM) | 156 µg/mL (≈ 509 µM) | 156 µg/mL (≈ 509 µM) | 15.6 µg/mL (≈ 50.9 µM) | 20.8 µg/mL (≈ 67.8 µM) | – | – | –
17 | COc1ccc2oc3ccc(Cl)cc3c(=O)c2c1 | 625 µg/mL (≈ 2400 µM) | 234 µg/mL (≈ 899 µM) | 625 µg/mL (≈ 2400 µM) | 1250 µg/mL (≈ 4800 µM) | 156 µg/mL (≈ 599 µM) | 234 µg/mL (≈ 899 µM) | – | – | –
18 | COC12C=CC(=O)C=C1C(=O)c1cc(Cl)ccc1O2 (centres undefined) | 156 µg/mL (≈ 565 µM) | 156 µg/mL (≈ 565 µM) | 312 µg/mL (≈ 1130 µM) | 156 µg/mL (≈ 565 µM) | 7.8 µg/mL (≈ 28.2 µM) | 156 µg/mL (≈ 565 µM) | – | – | –
19 | CC1(C)C=Cc2c(cc3oc4c(O)cccc4c(=O)c3c2O)O1 | – | – | – | – | – | – | 4.6 µM (≈ 1.43 µg/mL) | – | –
20 | O=C(O)c1cn(C2CC2)c2cc(N3CCNCC3)c(F)cc2c1=O [CIPROFLOXACIN] | 0.08 µg/mL (≈ 0.241 µM) | 1.25 µg/mL (≈ 3.77 µM) | – | 1.25 µg/mL (≈ 3.77 µM) | – | – | – | – | –
21 | COC1=CC(=O)C[C@@H](C)[C@]12Oc1c(Cl)c(OC)cc(OC)c1C2=O [GRISEOFULVIN] | – | – | – | – | – | – | – | 20 µg/mL (≈ 56.7 µM) | –
22 | CC(C)=CCc1cccc2c(=O)c3c(O)cc4c(c3oc12)C=CC(C)(C)O4 [LAURENTIXANTHONE A] | – | – | – | – | – | – | – | – | 2.44 µM (≈ 0.884 µg/mL)
